Results from US8124788B2, “Spirocyclic cyclohexane compounds with analgesic activity” (Gruenenthal GmbH, priority 2006, dated 2012).

target: T1, human μ opiate receptor (Homo sapiens, UniProt P35372); experiment: Affinity for the human μ opiate receptor ([3H]-naloxone displacement, CHO-K1 membrane preparation, SPA); format: binding; settings: compounds prepared via automated synthesis; single measurements at a test concentration of 1 μM
T1 construct: purchased PerkinElmer Life Sciences, Zaventem, Belgium RB-HOM; host or cells: CHO-K1 cells (recombinant expression)
T1 sequence (P35372 whole entry): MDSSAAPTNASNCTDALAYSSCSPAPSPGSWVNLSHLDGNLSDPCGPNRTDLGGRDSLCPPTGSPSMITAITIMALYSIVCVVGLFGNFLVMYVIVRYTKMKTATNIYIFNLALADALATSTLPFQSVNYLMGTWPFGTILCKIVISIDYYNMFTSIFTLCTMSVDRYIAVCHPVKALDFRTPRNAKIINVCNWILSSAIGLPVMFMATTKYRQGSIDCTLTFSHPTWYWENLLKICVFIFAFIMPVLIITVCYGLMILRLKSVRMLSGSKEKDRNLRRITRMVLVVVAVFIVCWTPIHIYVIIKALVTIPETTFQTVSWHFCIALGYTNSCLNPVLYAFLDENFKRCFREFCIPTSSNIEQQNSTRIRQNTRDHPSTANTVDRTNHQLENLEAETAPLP
Procedure: The receptor affinity for the human μ opiate receptor is determined in a homogeneous set-up in microtitre plates. For this purpose, dilution series of the substances to be tested are incubated with a receptor membrane preparation (15-40 μg of protein/250 μl of incubation batch) of CHO-K1 cells which express the human μ opiate receptor (RB-HOM receptor membrane preparation from PerkinElmer Life Sciences, Zaventem, Belgium) in the presence of 1 nmol/l of the radioactive ligand [^3H]-naloxone (NET719, PerkinElmer Life Sciences, Zaventem, Belgium) and 1 mg of WGA-SPA-Beads (wheat germ agglutinin SPA beads from Amersham/Pharmacia, Freiburg, Germany) in a total volume of 250 μl for 90 minutes at room temperature. 50 mmol/l of Tris-HCl supplemented with 0.06% of bovine serum albumin are used as the incubation buffer. 100 μmol/l of naloxone are additionally added for determination of the non-specific binding. After the end of the ninety-minute incubation time, the microtitre plates are centrifuged for 20 minutes at 1,000 g and the radioactivity is measured in a β-counter (Microbeta-Trilum, PerkinElmer Wallac, Freiburg, Germany). The percentage displacement of the radioactive ligand from its binding to the human μ opiate receptor is determined at a concentration of the test substances of 1 μmol/l and stated as the percentage inhibition of the specific binding. Starting from the percentage displacement by various concentrations of the test substances, IC50 inhibitory concentrations which cause a 50 percent displacement of the radioactive ligand are calculated. By conversion by means of the Cheng-Prusoff relationship, Ki values for the test substances are obtained.

Row | Compound | μ opioid receptor [1 μmol], % inhibition [%]
1 | CN(C)C(c1ccc(F)cc1)C1CCC2(CC1)c1[nH]c3ccccc3c1CCN2C(=O)Cc1ccc(F)cc1 (stereo not shown) [Compound 110, 2-[(4-fluorophenyl)acetyl]-{1,1-[3-(dimethylamino-(4-fluorophenyl)methyl)-pentamethylene]-3,4-dihydro-1H-2,9-diazafluorene}] | 14
2 | CCCCC(CC)C(=O)N1CCc2c([nH]c3ccccc23)C12CCC(C(c1cccc(F)c1)N(C)C)CC2 (stereo not shown) [Compound 111, 2-(2-ethylhexanoyl)-{1,1-[3-(dimethylamino-(3-fluorophenyl)methyl)-pentamethylene]-3,4-dihydro-1H-2,9-diazafluorene}] | 13
3 | CCC(=O)N1CCc2c([nH]c3ccccc23)C12CCC(C(c1cccc(F)c1)N(C)C)CC2 (stereo not shown) [Compound 113, 2-propionyl-{1,1-[3-(dimethylamino-(3-fluorophenyl)methyl)-pentamethylene]-3,4-dihydro-1H-2,9-diazafluorene}] | 13
4 | CN(C)C(c1cccc(F)c1)C1CCC2(CC1)c1[nH]c3ccccc3c1CCN2C(=O)Cc1ccc(F)cc1 (stereo not shown) [Compound 116, 2-[(4-fluorophenyl)acetyl]-{1,1-[3-(dimethylamino-(3-fluorophenyl)methyl)-pentamethylene]-3,4-dihydro-1H-2,9-diazafluorene}] | 20
5 | CCCCC(CC)C(=O)N1CCc2c([nH]c3ccccc23)C12CCC(C(c1ccc(Cl)cc1)N(C)C)CC2 (stereo not shown) [Compound 118, 2-(2-ethylhexanoyl)-{1,1-[3-(dimethylamino-(4-chlorophenyl)methyl)-pentamethylene]-3,4-dihydro-1H-2,9-diazafluorene}] | 35
6 | CC(C)C(=O)N1CCc2c([nH]c3ccccc23)C12CCC(C(c1ccc(Cl)cc1)N(C)C)CC2 (stereo not shown) [Compound 119, 2-isobutyryl-{1,1-[3-(dimethylamino-(4-chlorophenyl)methyl)-pentamethylene]-3,4-dihydro-1H-2,9-diazafluorene}] | 40
7 | CCC(=O)N1CCc2c([nH]c3ccccc23)C12CCC(C(c1ccc(Cl)cc1)N(C)C)CC2 (stereo not shown) [Compound 120, 2-propionyl-{1,1-[3-(dimethylamino-(4-chlorophenyl)methyl)-pentamethylene]-3,4-dihydro-1H-2,9-diazafluorene}] | 29
8 | CN(C)C(c1ccc(Cl)cc1)C1CCC2(CC1)c1[nH]c3ccccc3c1CCN2C(=O)Cc1ccc(F)cc1 (stereo not shown) [Compound 123, 2-[(4-fluorophenyl)acetyl]-{1,1-[3-(dimethylamino-(4-chlorophenyl)-methyl)-pentamethylene]-3,4-dihydro-1H-2,9-diazafluorene}] | 20
9 | CN(C)C(c1ccccc1)C1CCC2(CC1)c1[nH]c3ccccc3c1CCN2C(=O)C1CCCC1 (stereo not shown) [Compound 125, 2-cyclopentylcarbonyl-{1,1-[3-(dimethylamino-phenylmethyl)-pentamethylene]-3,4-dihydro-1H-2,9-diazafluorene}] | 29
10 | COc1cccc(CC(=O)N2CCc3c([nH]c4ccccc34)C23CCC(C(c2cccc(F)c2)N(C)C)CC3)c1 (stereo not shown) [Compound 126, 2-[(3-methoxyphenyl)acetyl]-{1,1-[3-(dimethylamino-(3-fluorophenyl)methyl)-pentamethylene]-3,4-dihydro-1H-2,9-diazafluorene}] | 50
11 | CC(Oc1ccccc1)C(=O)N1CCc2c([nH]c3ccccc23)C12CCC(C(c1cccc(F)c1)N(C)C)CC2 (stereo not shown) [Compound 127, 2-(2-phenoxypropanoyl)-{1,1-[3-(dimethylamino-(3-fluorophenyl)methyl)-pentamethylene]-3,4-dihydro-1H-2,9-diazafluorene}] | 55
12 | Cc1ccc2sc(C(=O)N3CCc4c([nH]c5ccccc45)C34CCC(C(c3cccc(F)c3)N(C)C)CC4)cc2c1 (stereo not shown) [Compound 128, 2-[5-methylbenzothien-2-ylcarbonyl]-{1,1-[3-(dimethylamino-(3-fluorophenyl)methyl)-pentamethylene]-3,4-dihydro-1H-2,9-diazafluorene}] | 16
13 | CC(C)CC(=O)N1CCc2c([nH]c3ccccc23)C12CCC(C(c1cccc(F)c1)N(C)C)CC2 (stereo not shown) [Compound 129, 1-{1,1-[3-(dimethylamino-(3-fluorophenyl)methyl) -pentamethylene]-3,4-dihydro-1H-2,9-diazafluoren-2-yl}-3-methylbutan-1-one] | 74
14 | CC(CC(=O)N1CCc2c([nH]c3ccccc23)C12CCC(C(c1cccc(F)c1)N(C)C)CC2)c1ccccc1 (stereo not shown) [Compound 130, 1-{1,1-[3-(dimethylamino-(3-fluorophenyl)methyl) -pentamethylene]-3,4-dihydro-1H-2,9-diazafluoren-2-yl}-3-phenylbutan-1-one] | 49
15 | CN(C)C(c1ccc(Cl)cc1)C1CCC2(CC1)c1[nH]c3ccccc3c1CCN2C(=O)Cc1cccc(Br)c1 (stereo not shown) [Compound 132, 2-[(3-bromophenyl)acetyl]-{1,1-[3-(dimethylamino-(4-chlorophenyl)-methyl)-pentamethylene]-3,4-dihydro-1H-2,9-diazafluorene}] | 65
16 | CC(Oc1ccccc1)C(=O)N1CCc2c([nH]c3ccccc23)C12CCC(C(c1ccc(Cl)cc1)N(C)C)CC2 (stereo not shown) [Compound 133, 2-(2-phenoxypropanoyl)-{1,1-[3-(dimethylamino-(4-chlorophenyl)methyl)-pentamethylene]-3,4-dihydro-1H-2,9-diazafluorene}] | 71
17 | CC(C)CC(=O)N1CCc2c([nH]c3ccccc23)C12CCC(C(c1ccc(Cl)cc1)N(C)C)CC2 (stereo not shown) [Compound 134, 1-{1,1-[3-(dimethylamino-(4-chlorophenyl)methyl) -pentamethylene]-3,4-dihydro-1H-2,9-diazafluoren-2-yl}-3-methylbutan-1-one] | 47
18 | COc1cccc(CC(=O)N2CCc3c([nH]c4ccccc34)C23CCC(C(c2ccccc2)N(C)C)CC3)c1 (stereo not shown) [Compound 136, 2-[(3-methoxyphenyl)acetyl]-{1,1-[3-(dimethylamino-phenylmethyl)-pentamethylene]-3,4-dihydro-1H-2,9-diazafluorene}] | 75
19 | CC(Oc1ccccc1)C(=O)N1CCc2c([nH]c3ccccc23)C12CCC(C(c1ccccc1)N(C)C)CC2 (stereo not shown) [Compound 137, 2-(2-phenoxypropanoyl)-{1,1-[3-(dimethylamino-phenylmethyl)-pentamethylene]-3,4-dihydro-1H-2,9-diazafluorene}] | 68
20 | CC(C)CC(=O)N1CCc2c([nH]c3ccccc23)C12CCC(C(c1ccccc1)N(C)C)CC2 (stereo not shown) [Compound 138, 1-{1,1-[3-(dimethylamino-phenylmethyl)-pentamethylene]-3,4-dihydro-1H-2,9-diazafluoren-2-yl}-3-methylbutan-1-one] | 58
21 | CCC(CC)C(=O)N1CCc2c([nH]c3ccccc23)C12CCC(C(c1ccc(F)cc1)N(C)C)CC2 (stereo not shown) [Compound 139, 1-{1,1-[3-(dimethylamino-(4-fluorophenyl)methyl) -pentamethylene]-3,4-dihydro-1H-2,9-diazafluoren-2-yl}-2-ethylbutan-1-one] | 25
22 | COc1cccc(CC(=O)N2CCc3c([nH]c4ccccc34)C23CCC(C(c2ccc(F)cc2)N(C)C)CC3)c1 (stereo not shown) [Compound 140, 2-[(3-methoxyphenyl)acetyl]-{1,1-[3-(dimethylamino-(4-fluorophenyl)methyl)-pentamethylene]-3,4-dihydro-1H-2,9-diazafluorene}] | 47
23 | CC(Oc1ccccc1)C(=O)N1CCc2c([nH]c3ccccc23)C12CCC(C(c1ccc(F)cc1)N(C)C)CC2 (stereo not shown) [Compound 141, 2-(2-phenoxypropanoyl)-{1,1-[3-(dimethylamino-(4-fluorophenyl)methyl)-pentamethylene]-3,4-dihydro-1H-2,9-diazafluorene}] | 47

same assay, conditions: compounds prepared via automated synthesis; single measurements at a test concentration of 1 μM; 1 µM

Row | Compound | μ opioid receptor [1 μmol], % inhibition [%]
24 | CN(C)C(c1ccc(Cl)cc1)C1CCC2(CC1)c1[nH]c3ccccc3c1CCN2C(=O)CCc1ccccc1 (stereo not shown) [Compound 131, 2-(3-phenylpropanoyl)-{1,1-[3-(dimethylamino-(4-chlorophenyl)methyl)-pentamethylene]-3,4-dihydro-1H-2,9-diazafluorene}] | 51
25 | CN(C)C(c1ccc(Cl)cc1)C1CCC2(CC1)c1[nH]c3ccccc3c1CCN2C(=O)CCc1ccccc1 (stereo not shown) [Compound 135, (3-phenylpropanoyl)-1-{1,1-[3-(dimethylamino-(4-chlorophenyl)methyl)-pentamethylene]-3,4-dihydro-1H-2,9-diazafluorene}] | 38
